Experimental data: patent publication US11566022B2, “3-(5-methoxy-1-oxoisoindolin-2-yl)piperidine-2,6-dione derivatives and uses thereof” (NOVARTIS AG, priority 2019, dated 2023)
Like-named read-outs stand apart in the source and are kept apart here.

Biological target: HiBit-WIZ fusion protein (Homo sapiens, UniProt O95785+Q96SW2)
Assay: Quantification of WIZ protein levels in HiBit tag fusion protein assay (WIZ HiBit assay in 293T cells)
Assay type: cell-based
Set-up: Dmax: dose or concentration left out as unconfirmed
Conditions: for Dmax / remaining activity at up to 25 µM / remaining activity: HEK-293T; for remaining activity at up to 25 µM: read-out: WIZ Amax; for DC50: WIZ HiBit assay in 293T cells, 10-point, 5-fold dose response, highest concentration 25 μM, about 18 hours, read-out: WIZ AC50; for remaining activity: read-out: WIZ Amax, DMSO-normalized, curve-fitted percentage of WIZ-HiBit remaining at 25 uM
[1] = 100 minus Amax, 293T cells, read-out: % degradation of WIZ (100-Amax)
[2] = DMSO-normalized, curve-fitted percentage of WIZ-HiBit remaining at 25 uM, 293T cells
[3] = read-out: % degradation of WIZ (100-Amax), 100 minus Amax, 293T cells

Sequence of HiBit-WIZ fusion protein (O95785 whole entry, the tested form may be a part): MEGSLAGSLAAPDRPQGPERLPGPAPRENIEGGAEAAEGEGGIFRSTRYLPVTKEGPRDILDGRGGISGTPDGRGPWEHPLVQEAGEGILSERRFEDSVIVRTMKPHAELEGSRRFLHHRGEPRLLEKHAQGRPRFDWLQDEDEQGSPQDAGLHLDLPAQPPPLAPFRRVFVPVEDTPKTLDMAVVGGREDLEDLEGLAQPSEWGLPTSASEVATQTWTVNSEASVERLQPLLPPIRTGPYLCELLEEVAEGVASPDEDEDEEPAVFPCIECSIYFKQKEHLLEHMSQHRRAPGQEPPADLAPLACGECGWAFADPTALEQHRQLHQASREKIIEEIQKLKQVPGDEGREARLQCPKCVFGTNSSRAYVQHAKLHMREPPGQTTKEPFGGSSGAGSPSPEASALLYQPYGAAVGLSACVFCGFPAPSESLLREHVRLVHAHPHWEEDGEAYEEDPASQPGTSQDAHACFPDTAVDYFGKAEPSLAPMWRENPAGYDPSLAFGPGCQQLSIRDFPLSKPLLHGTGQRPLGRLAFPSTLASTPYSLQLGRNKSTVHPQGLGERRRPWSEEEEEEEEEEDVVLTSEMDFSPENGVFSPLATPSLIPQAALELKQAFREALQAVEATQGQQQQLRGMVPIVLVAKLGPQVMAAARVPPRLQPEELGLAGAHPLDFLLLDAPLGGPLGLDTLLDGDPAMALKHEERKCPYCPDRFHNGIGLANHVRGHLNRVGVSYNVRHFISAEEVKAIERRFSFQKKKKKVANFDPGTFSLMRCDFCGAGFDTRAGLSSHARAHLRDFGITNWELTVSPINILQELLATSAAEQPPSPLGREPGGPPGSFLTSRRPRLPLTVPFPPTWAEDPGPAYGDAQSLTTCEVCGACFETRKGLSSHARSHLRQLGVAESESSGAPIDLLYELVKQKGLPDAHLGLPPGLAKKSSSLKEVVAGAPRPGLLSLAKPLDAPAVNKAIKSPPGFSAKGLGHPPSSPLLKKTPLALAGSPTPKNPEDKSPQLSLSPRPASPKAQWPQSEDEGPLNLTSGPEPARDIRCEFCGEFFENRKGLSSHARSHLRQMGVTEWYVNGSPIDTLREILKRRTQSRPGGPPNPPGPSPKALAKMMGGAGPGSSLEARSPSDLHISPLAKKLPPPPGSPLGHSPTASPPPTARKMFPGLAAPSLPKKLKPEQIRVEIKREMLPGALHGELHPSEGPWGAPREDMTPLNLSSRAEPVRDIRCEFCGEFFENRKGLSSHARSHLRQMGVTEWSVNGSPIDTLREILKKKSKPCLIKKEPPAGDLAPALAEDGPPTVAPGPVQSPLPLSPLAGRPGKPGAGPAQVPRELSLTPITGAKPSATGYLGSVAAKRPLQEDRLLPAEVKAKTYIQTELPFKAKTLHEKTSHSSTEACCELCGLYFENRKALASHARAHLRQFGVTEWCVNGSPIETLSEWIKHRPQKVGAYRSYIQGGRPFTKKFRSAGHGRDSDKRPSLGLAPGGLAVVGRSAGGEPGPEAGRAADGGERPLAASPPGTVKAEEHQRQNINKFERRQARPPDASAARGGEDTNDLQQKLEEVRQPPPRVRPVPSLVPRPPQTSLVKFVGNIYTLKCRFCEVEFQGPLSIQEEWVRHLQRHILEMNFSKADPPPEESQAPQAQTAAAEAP
Sequence of HiBit-WIZ fusion protein (Q96SW2 whole entry, the tested form may be a part): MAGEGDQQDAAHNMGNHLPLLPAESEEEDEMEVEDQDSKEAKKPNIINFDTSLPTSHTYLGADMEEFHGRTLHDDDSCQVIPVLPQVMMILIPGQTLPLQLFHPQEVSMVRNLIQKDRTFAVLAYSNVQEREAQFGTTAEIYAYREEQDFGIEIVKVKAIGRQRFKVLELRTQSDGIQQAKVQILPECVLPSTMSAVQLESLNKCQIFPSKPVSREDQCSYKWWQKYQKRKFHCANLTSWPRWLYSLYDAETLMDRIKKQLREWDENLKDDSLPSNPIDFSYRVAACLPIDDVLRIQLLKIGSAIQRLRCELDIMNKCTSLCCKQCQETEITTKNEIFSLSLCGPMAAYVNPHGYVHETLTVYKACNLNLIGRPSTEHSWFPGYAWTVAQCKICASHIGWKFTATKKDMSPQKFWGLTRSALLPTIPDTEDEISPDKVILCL
Sequence of HiBit-WIZ fusion protein (Q16531 whole entry partner, the tested form may be a part): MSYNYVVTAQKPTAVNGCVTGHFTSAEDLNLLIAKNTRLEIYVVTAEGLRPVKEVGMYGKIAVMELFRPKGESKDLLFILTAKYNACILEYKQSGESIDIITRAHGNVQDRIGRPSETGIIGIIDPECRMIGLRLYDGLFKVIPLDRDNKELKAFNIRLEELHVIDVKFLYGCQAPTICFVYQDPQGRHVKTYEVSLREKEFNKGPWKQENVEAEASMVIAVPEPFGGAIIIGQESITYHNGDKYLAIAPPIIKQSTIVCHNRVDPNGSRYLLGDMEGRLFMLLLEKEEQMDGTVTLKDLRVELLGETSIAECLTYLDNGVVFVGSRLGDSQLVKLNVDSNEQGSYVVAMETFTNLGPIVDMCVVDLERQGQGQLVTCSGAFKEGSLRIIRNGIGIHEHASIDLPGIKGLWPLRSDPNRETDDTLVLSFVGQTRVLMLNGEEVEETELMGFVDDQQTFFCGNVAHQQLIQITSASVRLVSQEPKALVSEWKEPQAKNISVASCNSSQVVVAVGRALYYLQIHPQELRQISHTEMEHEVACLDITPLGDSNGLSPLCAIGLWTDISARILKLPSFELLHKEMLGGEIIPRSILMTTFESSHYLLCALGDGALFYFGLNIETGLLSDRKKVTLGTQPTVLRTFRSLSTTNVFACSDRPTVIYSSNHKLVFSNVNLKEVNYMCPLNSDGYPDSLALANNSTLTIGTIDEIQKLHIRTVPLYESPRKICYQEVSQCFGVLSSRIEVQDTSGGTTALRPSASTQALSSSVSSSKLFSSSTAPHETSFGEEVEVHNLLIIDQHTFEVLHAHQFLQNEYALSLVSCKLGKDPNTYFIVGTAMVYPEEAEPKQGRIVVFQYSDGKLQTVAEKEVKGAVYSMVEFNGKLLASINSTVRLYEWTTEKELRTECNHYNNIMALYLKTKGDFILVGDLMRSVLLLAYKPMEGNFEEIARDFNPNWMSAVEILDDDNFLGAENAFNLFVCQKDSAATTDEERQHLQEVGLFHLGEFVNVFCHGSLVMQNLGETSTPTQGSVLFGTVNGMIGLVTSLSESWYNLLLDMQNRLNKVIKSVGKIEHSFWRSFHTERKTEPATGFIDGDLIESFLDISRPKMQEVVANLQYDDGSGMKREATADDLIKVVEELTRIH

SMILES	Dmax [1] [%]	remaining activity at up to 25 µM [2] [%]	DC50 [µM]	% degradation of WIZ (100-Amax) (100 minus Amax, at 25 uM, 293T cells) [%]	WIZ Amax [2] [%]	Dmax [3] [%]	remaining activity (293T cells) [%]
O=C1CCC(N2Cc3cc(OC[C@@H]4CCCCN4C(=O)CN4CCCCC4)ccc3C2=O)C(=O)N1 (stereo partly drawn) [Compound I-72jq]	11.7	88.3	> 25				
O=C1CCC(N2Cc3cc(OCC4CC(F)(F)CCN4)ccc3C2=O)C(=O)N1 (stereo not drawn) [Compound I-251, 3-(5-((4,4-difluoropiperidin-2-yl)methoxy)-1-oxoisoindolin-2-yl)piperidine-2,6-dione]	78.3	21.7	0.5				
O=C1CCC(N2Cc3cc(OC[C@@H]4CCCCN4Cc4cccc(Cn5cccn5)c4)ccc3C2=O)C(=O)N1 (stereo partly drawn) [Compound I-50bz]	85.2	14.8	0.172				
O=C1CCC(N2Cc3cc(OC[C@H]4CCCCN4Cc4cccc5c4NC(=O)CO5)ccc3C2=O)C(=O)N1 (stereo partly drawn) [Compound I-180, 3-(1-oxo-5-(((R)-1-((3-oxo-3,4-dihydro-2H-benzo[b][1,4]oxazin-5-yl)methyl)piperidin-2-yl)methoxy)isoindolin-2-yl)piperidine-2,6-dione]	15.3	84.7	0.02				
O=C1CCC(N2Cc3cc(OC[C@H]4CCCCN4Cc4ccc5[nH]cnc5c4)ccc3C2=O)C(=O)N1 (stereo partly drawn) [Compound I-193]	55.7	44.3	0.49				
O=C1CCC(N2Cc3cc(OC[C@H]4CCCCN4Cc4ccc(F)cc4)ccc3C2=O)C(=O)N1 (stereo partly drawn) [Compound I-113]	99.4	0.64	0.0038				
CCN1CCc2cccc(CN3CCCC[C@@H]3COc3ccc4c(c3)CN(C3CCC(=O)NC3=O)C4=O)c21 (stereo partly drawn) [Compound I-112, 3-(5-(((R)-1-((1-ethylindolin-7-yl)methyl)piperidin-2-yl)methoxy)-1-oxoisoindolin-2-yl)piperidine-2,6-dione]			0.059			96.9	3.13
CCN(CC)c1ccc(CN2CCCC[C@@H]2COc2ccc3c(c2)CN(C2CCC(=O)NC2=O)C3=O)cn1 (stereo partly drawn) [Compound I-50eb]	98.5	1.5	0.002				
O=C1CCC(N2Cc3cc(OC[C@H]4CCCCN4Cc4ccc5c(c4)OC(F)(F)O5)ccc3C2=O)C(=O)N1 (stereo partly drawn) [Compound I-184]	92.7	7.28	0.00047				
CCc1cc(C(=O)N2CCCC[C@H]2COc2ccc3c(c2)CN(C2CCC(=O)NC2=O)C3=O)on1 (stereo partly drawn) [Compound I-72ek]	21	79	> 25				
Cc1nccn1-c1ccc(CN2CCCC[C@H]2COc2ccc3c(c2)CN(C2CCC(=O)NC2=O)C3=O)cc1 (stereo partly drawn) [Compound I-50u]	70.1	29.9	2.64				
O=C1CCC(N2Cc3cc(OC[C@H]4CCCCN4Cc4ccc5c(c4)OCO5)ccc3C2=O)C(=O)N1 (stereo partly drawn) [Compound I-137, 3-(5-(((R)-1-(benzo[d][1,3]dioxol-5-ylmethyl)piperidin-2-yl)methoxy)-1-oxoisoindolin-2-yl)piperidine-2,6-dione]			0.0015			90	10
O=C1CCC(N2Cc3cc(OC[C@H]4CCCCN4Cc4nccn4Cc4ccccc4)ccc3C2=O)C(=O)N1 (stereo partly drawn) [Compound I-50ax]	92.5	7.5	0.149				
Cc1cc(-c2onc(C)c2C(=O)N2CCCC[C@H]2COc2ccc3c(c2)CN(C2CCC(=O)NC2=O)C3=O)no1 (stereo partly drawn) [Compound I-72ep]	77.8	22.2	1.35				
O=C1CCC(N2Cc3cc(OC[C@@H]4CCCCN4Cc4ccc(C(=O)N5CCCC5)cc4)ccc3C2=O)C(=O)N1 (stereo partly drawn) [Compound I-50j]	65.4	34.6	3.49				
Cc1cc(-n2c(C)cc(C(=O)N3CCCC[C@H]3COc3ccc4c(c3)CN(C3CCC(=O)NC3=O)C4=O)c2C)no1 (stereo partly drawn) [Compound I-72iu]	71.7	28.3	2				
O=C1CCC(N2Cc3cc(OC[C@@H]4CCCCN4C(=O)c4cccc5cnccc45)ccc3C2=O)C(=O)N1 (stereo partly drawn) [Compound I-72j]	21.5	78.5	> 25				

Further lines, with some results ahead:

Dmax [1] [%]	remaining activity at up to 25 µM [2] [%]	DC50 [µM]	% degradation of WIZ (100-Amax) (100 minus Amax, at 25 uM, 293T cells) [%]	WIZ Amax [2] [%]	SMILES	Dmax [3] [%]	remaining activity (293T cells) [%]
81.1	18.9	0.00073			O=C1CCC(N2Cc3cc(OC[C@H]4CCCCN4Cc4ccc(N5CCN(C6CC6)CC5)cc4)ccc3C2=O)C(=O)N1 (stereo partly drawn) [Compound I-233, 3-(5-(((R)-1-(4-(4-cyclopropylpiperazin-1-yl)benzyl)piperidin-2-yl)methoxy)-1-oxoisoindolin-2-yl)piperidine-2,6-dione]		
26.4	73.6	> 25			CCN1CCCC(C)(C)C1COc1ccc2c(c1)CN(C1CCC(=O)NC1=O)C2=O (single isomer, unassigned) [Compound I-17, 3-(5-((1-ethyl-3,3-dimethylpiperidin-2-yl)methoxy)-1-oxoisoindolin-2-yl)piperidine-2,6-dione]		
99.9	0.1	0.002			O=C1CCC(N2Cc3cc(OC[C@H]4CCCCN4Cc4cccc(N5CCCC5)c4)ccc3C2=O)C(=O)N1 (stereo partly drawn) [Compound I-50do]		
96.6	3.4	0.019			Cn1ccc2c(CN3CCCC[C@@H]3COc3ccc4c(c3)CN(C3CCC(=O)NC3=O)C4=O)cccc21 (stereo partly drawn) [Compound I-50dy]		
69.9	30.1	1.47			CCCCCc1ccc(C(=O)N2CCCC[C@H]2COc2ccc3c(c2)CN(C2CCC(=O)NC2=O)C3=O)cc1 (stereo partly drawn) [Compound I-72t]		
		0.098	28.8	71.2	CCN1C2CCC(C2)C1COc1ccc2c(c1)CN(C1CCC(=O)NC1=O)C2=O (single isomer, unassigned) [I-255 (Isomer 2), 3-(5-((endo-2-ethyl-2-azabicyclo[2.2.1]heptan-3-yl)methoxy)-1-oxoisoindolin-2-yl)piperidine-2,6-dione]		
87	13	0.147			O=C1CCC(N2Cc3cc(OC[C@H]4CCCCN4Cc4ccnc5[nH]ccc45)ccc3C2=O)C(=O)N1 (stereo partly drawn) [Compound I-50dk]		
80.8	19.1	0.0043			O=C1CCC(N2Cc3cc(OC[C@H]4CCCCN4Cc4ccc(N5CCOCC5)nc4)ccc3C2=O)C(=O)N1 (stereo partly drawn) [Compound I-186, 3-(5-(((R)-1-((6-morpholinopyridin-3-yl)methyl)piperidin-2-yl)methoxy)-1-oxoisoindolin-2-yl)piperidine-2,6-dione]		
93.7	6.3	0.076			O=C1CCC(N2Cc3cc(OC[C@H]4CCCCN4Cc4cc(F)c(F)c(F)c4)ccc3C2=O)C(=O)N1 (stereo partly drawn) [Compound I-144]		
15.4	84.6	> 25			CC(C)(C)OC(=O)NC1(CN2CCCC[C@H]2COc2ccc3c(c2)CN(C2CCC(=O)NC2=O)C3=O)CCCC1 (stereo partly drawn) [Compound I-50aq]		
31.1	68.9	> 25			COc1cccc2c(C(=O)N3CCCC[C@H]3COc3ccc4c(c3)CN(C3CCC(=O)NC3=O)C4=O)c[nH]c12 (stereo partly drawn) [Compound I-72cq]		
